# In EP4039094A1, “NOVEL ANTIFUNGAL COMPOUNDS” (Max-Planck-Gesellschaft zur Förderung der Wissenschaften …, priority 2021, dated 2022):
# Like-named read-outs stand apart in the source and are kept apart here.
# Molecular target: T1, Stp1/Stp4/Stp3 subcomplex (Mycosarcoma maydis, UniProt A0A0D1C5E3+A0A0D1CU07+A0A0D1EAN2)
# T1 sequence (A0A0D1CU07 29-515): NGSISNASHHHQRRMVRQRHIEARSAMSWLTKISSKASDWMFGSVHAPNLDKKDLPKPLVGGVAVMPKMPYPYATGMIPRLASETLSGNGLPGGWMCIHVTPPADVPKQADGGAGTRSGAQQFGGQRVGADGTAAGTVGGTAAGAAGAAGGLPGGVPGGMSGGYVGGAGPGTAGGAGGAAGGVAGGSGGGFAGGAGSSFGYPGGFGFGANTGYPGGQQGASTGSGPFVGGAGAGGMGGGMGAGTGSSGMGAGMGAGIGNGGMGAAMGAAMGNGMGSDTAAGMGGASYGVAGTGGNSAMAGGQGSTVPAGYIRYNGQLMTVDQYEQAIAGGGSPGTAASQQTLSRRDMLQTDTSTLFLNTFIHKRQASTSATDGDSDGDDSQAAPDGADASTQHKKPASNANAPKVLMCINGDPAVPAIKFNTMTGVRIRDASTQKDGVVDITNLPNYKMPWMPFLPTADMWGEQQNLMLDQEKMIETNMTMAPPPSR
# T1 sequence (A0A0D1C5E3 24-129): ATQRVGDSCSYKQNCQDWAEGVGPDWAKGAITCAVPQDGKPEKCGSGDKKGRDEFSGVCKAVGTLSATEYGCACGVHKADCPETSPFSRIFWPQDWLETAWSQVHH
# T1 sequence (A0A0D1EAN2 25-327): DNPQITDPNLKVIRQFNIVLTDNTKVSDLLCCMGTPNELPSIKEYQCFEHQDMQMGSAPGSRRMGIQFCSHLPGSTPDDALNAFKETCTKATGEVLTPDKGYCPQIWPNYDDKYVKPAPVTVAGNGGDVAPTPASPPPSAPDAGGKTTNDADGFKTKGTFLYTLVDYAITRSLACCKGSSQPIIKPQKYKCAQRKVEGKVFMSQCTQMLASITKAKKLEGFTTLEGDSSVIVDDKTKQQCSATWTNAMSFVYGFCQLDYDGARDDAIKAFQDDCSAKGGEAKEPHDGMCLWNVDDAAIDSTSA
# Assay: Alamar Blue viability assay in S. cerevisiae 2-hybrid strain NL73 (viability depends on Stp complex formation)
# Assay type: cell-based, U. maydis
# Source text: To develop a screening platform based on Stp complex formation, a Saccharomyces cerevisiae 2-hybrid system was used. […] After co-transformation, reporter gene transcription is activated only if the two fusion proteins interact in the yeast nucleus. Moreover, the S. cerevisiae strain AH109 harbours the reporter genes ADE2 and HIS3, which encode for two enzymes that are crucial for adenine (Ade) and histidine (His) biosynthesis and thereby enable nutritional selection as a read-out for the interaction between proteins. In the following experiments, growth on high-stringency synthetic defined (SD) medium (SD -Leu -Trp -Ade -His) was used to identify if the complex members interact between them causing expression of ADE2 and HIS3. Additionally, strains were also grown on low-stringency medium (SD -Leu -Trp) to confirm their viability. […] All experiments were done with three independent transformants to exclude false positives due to spontaneous mutations.
# The S. cerevisiae strain AH109 from Clontech (Saint-Germain-en-Laye, France) is auxotrophic for tryptophan, leucine, adenine and histidine. In addition, lacz is under control of the MEL1 UAS to be used as readout for quantitative β-galactosidase assays.
# The resulting test strain NL73 (AD-Stp4/BD-Stp1/myc-Stp3) expresses the Stp1/Stp4/Stp3 subcomplex. NL73 carries the following three plasmids: pGBKT7-stp1: pGBKT7 vector expressing proteins fused to the GAL4 DNA binding domain (DNA-BD). pGBKT7 also contains the T7 promoter, a c-Myc epitope tag, and a MCS. The vector carries a Kanamycin resistance gene (Kanr) for selection in E. coli and the TRP1 nutritional marker for selection in yeast. pGAD-stp4: pGADT7 vector expressing proteins fused to a GAL4 activation domain (AD). The GAL4 AD fusion contains an N-terminal nuclear localization signal that targets the protein to the yeast nucleus, and a HA Tag, located between the GAL4 AD and the protein of interest. The vector carries an ampicillin resistance gene (Ampr) for selection in E. coli and a LEU2 nutritional marker for selection in yeast. pYEA-stp3-myc: pYEA vector expressing proteins under the control of the phosphoglycerate kinase promoter. The vector carries an ampicillin resistance gene (Ampr) for selection in E. coli and an ADE2 nutritional marker for selection in yeast. As control strain, NL70 containing empty vectors was generated (AH109Δabc9 pGAD::LEU2 pGBK::TRP1 pYEA::ADE2).
# After that, 25 µl of NL73 cell suspension were dispensed into the assay plates using Multidrop Combi (Thermofisher Scientific) giving a final screening concentration of 10 µM. One column of the assay plate was filled with 25 µl of NL70 control strain cell suspension as negative control. Plates were sealed with Breathe-Easy sealing membrane (Sigma, Z380059), lidded and incubated in a humid chamber over night at 30°C and 140 rpm in an HT Multitron Pro (Infors). […] For the viability assay, the alamar Blue HS Cell Viability reagent (Invitrogen, #A50101) was pre-diluted using an equal amount of dVE-H2O and 5 µl of diluted Alamar Blue were added to the screening plates using Multidrop Combi. The plates were sealed again and incubated for 4 h at room temperature, unlidded. […] Screening data was normalized to DMSO-treated NL73 cells (that received DMSO in the same concentration as in samples where compounds dissolved in DMSO were added) being 100% and DMSO-treated NL70 cells representing 0% viability and analyzed with Quattro Software Suite (Quattro Research GmbH).
# [1] = inhibitory activity on NL73 viability, Table 6, read-out: IC50
# [2] = Alamar Blue assay, Table 8, read-out: IC50
Compound,IC50 [1],IC50 [2],"IC50 (Alamar Blue assay, Table 8)"
CCn1c2c(c(SCc3cccc(C)c3)nc1=O)CCC2 [Compound 2-C],6.2 µM,,
O=S(=O)(Nc1cnc2c(cnn2C2CCCCC2)c1)c1cc(F)ccc1F [Compound 3-B],,2.2 µM,
CCCn1c2c(c(SCc3ccccc3F)nc1=O)CCC2 [Compound 3-C],6.4 µM,,
Cn1ncc2cc(NS(=O)(=O)c3cc(F)ccc3F)cnc21 [Compound 4-B],,10.2 µM,
"CC(C)n1ncc2cc(NS(C)(=O)=O)cnc21 [Ref1-B, reference compound]",,,inactive
"O=S(=O)(Nc1cnc2[nH]ncc2c1)c1cc(F)ccc1F [Ref2-B, reference compound]",,,inactive
